{"source": "paper PMC6927413", "about": "(Chemical Communications (Cambridge, England), 2019)", "key": {"wt-psBBOX [1]": {"target": "T1, wt-psBBOX (Pseudomonas sp., UniProt P80193)", "T1 sequence (P80193 whole entry)": "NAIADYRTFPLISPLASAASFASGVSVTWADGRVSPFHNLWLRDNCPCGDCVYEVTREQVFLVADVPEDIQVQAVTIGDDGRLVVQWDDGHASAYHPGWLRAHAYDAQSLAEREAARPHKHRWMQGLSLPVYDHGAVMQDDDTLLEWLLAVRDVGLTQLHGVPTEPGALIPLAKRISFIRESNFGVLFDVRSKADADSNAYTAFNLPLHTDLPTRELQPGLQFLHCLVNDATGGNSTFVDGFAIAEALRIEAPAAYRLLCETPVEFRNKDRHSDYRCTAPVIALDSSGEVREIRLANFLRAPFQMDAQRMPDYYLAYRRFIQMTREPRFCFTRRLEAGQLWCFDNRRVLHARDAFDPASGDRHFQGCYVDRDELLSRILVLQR", "details": "Km for 2OG; cited from earlier work"}, "[2]": {"target": "T2, psBBOX-Y201C-BFA (psBBOX*) (Pseudomonas sp., UniProt P80193, Y201C)", "T2 construct": "hexa-His tag (pCOLDI) (N); made in house; host or cells: E. coli BL21 (DE3)", "T2 sequence (P80193 whole entry Y201C)": "as the sequence (P80193 whole entry) above, with Y201C counted along it", "test": "1H NMR inhibition assay of psBBOX-Y201C-BFA (psBBOX*) catalysed GBB turnover", "assay_type": "biochemical, Pseudomonas sp. AK1", "procedure": "(§1) in 20 mM HCl in D2O), 200 μM GBB (Cl- salt), 600 μM 2OG, in Tris-d11 (pH 7.5 in H 2O).\n(§2) 2OG, in phosphate buffer (50 mM, pH 7.1, pD 7.5, in D2O). […]\n([(NH4)2Fe(SO4)2.6H2O] in 20mM HCl in D2O), 600 μM 2OG, 500 μM L-ascorbate (di-sodium salt), in Tris-d11 ( p H 7 . 5 i n H 2O ) . […]"}, "wt-psBBOX [3]": {"target": "T1, wt-psBBOX", "details": "2 μM psBBOX, 50 μM metal, 50 mM HEPES pH 7.5; for Tm Shift: relative to protein without metal", "procedure": "psBBOX Differential Scanning Fluorimetry (DSF) assays\nSee also Supplementary Figure S5. […]\nconcentration 50 μM). Controls contained 10 μL of buffer instead of metal solution. 2 mL of master mix was prepared by mixing 1.25 mL stock of sypro orange (made by diluting 1 μL of […]\nand 739 μl of 50 mM HEPES pH 7.5. […]\nμL. Metal solutions were made freshly. Experiments was carried out in triplicate.\nDSF was performed using a MiniOpticon Real-Time PCR Detection System (Bio-Rad), monitoring protein unfolding using SYPRO orange (Invitrogen) according to reported […]\nnm) filters were used for excitation and the emission, respectively. Reaction mixtures contained: 2 μM protein, 50 μM metal and 1 × SYPRO orange (final volume 50 μL). Reagents were prepared in 50 mM HEPES buffer pH 7.5. Iron solution was prepared shortly before […]\ntemperature increased linearly by 1 °C per minute.\nThe inflection point, representing Tm, was calculated by fitting the Boltzmann equation to the sigmoidal curves obtained; data were processed using GraphPad Prism 5.0. The Tm shift caused by the addition of small molecules/fragments was determined by subtraction of the “reference” Tm (protein without metal) from the Tm obtained in the presence of the metal."}, "psBBOX*-Zn(II)": {"target": "T3, psBBOX*-Zn(II) (Pseudomonas sp., UniProt P80193, Y201C)", "T3 construct": "hexa-His tag (pCOLDI) (N); made in house; host or cells: E. coli BL21 (DE3)", "T3 sequence (P80193 whole entry Y201C)": "as the sequence (P80193 whole entry) above, with Y201C counted along it", "test": "Protein-observed 19F NMR (PrOF) ligand titrations with psBBOX*", "assay_type": "binding, Pseudomonas sp. AK1", "details": "for effect on the original psBBOX* 19F NMR signal: titration with psBBOX*-Zn(II)", "procedure": "NMR materials and methods2 […]\nbroadening of 20 Hz was applied using MestReNova version 11.0. Spectra were referenced to […]\ncontained: 100 μM psBBOX* in Tris buffer (50 mM, pH 7.5) and 200 mM NaCl in 90% H2O and […]"}, "psBBOX [4]": {"target": "T4, psBBOX (Pseudomonas sp., UniProt P80193)", "T4 construct": "N-terminal hexa-His tag (pCOLD I vector); printed for the Y201C variant, inferred for wild type from the pCOLD template (N); made in house; host or cells: Escherichia coli", "assay_type": "binding, Pseudomonas sp. AK1", "details": "1H NMR reporter assay; for GBB displacement: titration into psBBOX-Zn(II)-2OG-GBB complex; for displacement of GBB and 2OG from the psBBOX active site: wild-type psBBOX", "description": "NMR based reporter BBOX assays, using either Zn^(II) or Mn^(II) (making use of paramagnetic relaxation enhancement (PRE)) to observe ligand binding are reported.[25] These enable monitoring of co/substrate 2OG/γ-butyrobetaine (GBB; 3) psBBOX binding and inform on binding modes of inhibitors, including whether they displace GBB and/or 2OG. We now report ^19F NMR studies on ligand binding to BBOX; the work was initiated following ^1H NMR observations concerning the binding of Mildronate to psBBOX.\nSince psBBOX is dimeric[21],[22] (Fig. 1C), these observations led to the proposal that binding of a second molecule of GBB (or Mildronate) to the psBBOX-Zn^(II)-2OG–GBB complex strengthens binding of the first GBB molecule, i.e. there is cooperativity in substrate binding between the monomers of the dimer."}, "[5]": {"target": "T2, psBBOX-Y201C-BFA (psBBOX*)", "test": "1H NMR binding assay with psBBOX-Y201C-BFA (psBBOX*)", "parameters": "species or system Pseudomonas sp. AK1", "procedure": "as §1, §2"}, "hBBOX": {"tested_on": "hBBOX", "details": "cited from earlier work"}, "psBBOX [6]": {"target": "T4, psBBOX", "details": "reported GBB substrate analogues, hydroxylated to L-carnitine analogues; cited from earlier work"}, "wt-psBBOX [7]": {"target": "T1, wt-psBBOX", "test": "Fluoride release assay", "assay_type": "biochemical, Pseudomonas sp. AK1", "parameters": "N-terminal hexa-His tag (pCOLD I vector); printed for the Y201C variant, inferred for wild type from the pCOLD template (N); made in house; host or cells: Escherichia coli", "procedure": "The combined NMR studies on ligand binding led to the proposal that a new BBOX inhibitor scaffold could be identified by directly incorporating analogues of identified 2OG and GBB binding motifs, comprising appropriately positioned metal chelating and quaternary ammonium moieties, giving a ‘co-substrate/substrate’ mimic. With this in mind, RL190B (8) was synthesised (ESI ^†); it is a relatively potent psBBOX inhibitor (IC50 = 5 μM (fluoride release assay)[31]). […] By contrast with other ligand titrations using psBBOX* such significant line broadening was not observed (e.g. Fig. S11–S13, ESI ^†). Broadening of signals in PrOF NMR is often typical of weaker inhibitors; the significant (and unusual amongst studied compounds) signal attenuation observed with (8) may be a result of its binding in both 2OG and GBB cavities. This may cause changes of conformational mobility/protein destabilisation, potentially yielding a number of indistinct conformational states.\n(B) RL190B is a 2OG and substrate mimic. (C) RL190B causes attenuation of the psBBOX* ^19F NMR signal. (D) RL190B inhibition of wt-psBBOX as determined by a fluoride release assay.[31] TEXT PRINTED IN THE PICTURE: (D) RL190B (8): IC50 (psBBOX) = 5 μM"}, "BBOX": {"tested_on": "BBOX", "parameters": "method as in earlier work", "details": "2OG-competing, metal-chelating BBOX inhibitor; cited from earlier work"}}, "note": "“Also recorded” adds a separate entry of the source. Like-named read-outs stand apart in the source and are kept apart here.", "data": [{"compound": "O=C(O)CCC(=O)C(=O)O", "note": "[2OG, 2-oxoglutarate]", "values": [{"measurement": "Km", "setting": "wt-psBBOX [1]", "value": 532, "unit": "µM"}]}, {"compound": "O=C(N[C@@H](CSCc1ccccn1)C(=O)O)c1ncccc1O", "note": "[AR692B]", "values": [{"measurement": "IC50", "setting": "[2]", "value": 245, "unit": "µM"}]}, {"compound": "[Co+2]", "note": "[Co(II)]", "values": [{"measurement": "Tm", "setting": "wt-psBBOX [3]", "value": "6.6±2.2"}, {"measurement": "Tm Shift", "setting": "wt-psBBOX [3]", "value": "15.7±0.8", "unit": "°C"}]}, {"compound": "[Cu+2]", "note": "[Cu(II)]", "values": [{"measurement": "Tm", "setting": "wt-psBBOX [3]", "value": "6.3±0.5"}, {"measurement": "Tm Shift", "setting": "wt-psBBOX [3]", "value": "12.4±1.1", "unit": "°C"}]}, {"compound": "[Fe+2]", "note": "[Fe(II)]", "values": [{"measurement": "Tm Shift", "setting": "wt-psBBOX [3]", "value": "8.4±0.7", "unit": "°C"}]}, {"compound": "[K+]", "note": "[K(I)]", "values": [{"measurement": "Tm Shift", "setting": "wt-psBBOX [3]", "value": "0.0±0.1", "unit": "°C"}]}, {"compound": "[Mg+2]", "note": "[Mg(II)]", "values": [{"measurement": "Tm", "setting": "wt-psBBOX [3]", "value": "20.1±0.2"}, {"measurement": "Tm Shift", "setting": "wt-psBBOX [3]", "value": "0.0±0.1", "unit": "°C"}]}, {"compound": "C[N+](C)(C)NCCC(=O)[O-]", "note": "[Mildronate, reference compound]", "values": [{"measurement": "change of 19F NMR spectrum on addition to psBBOX*-Zn(II)-GBB-2OG", "setting": "psBBOX*-Zn(II); psBBOX*-Zn(II)-GBB-2OG", "value": "does not change; also recorded: did not manifest detectable changes"}, {"measurement": "GBB displacement", "setting": "psBBOX [4]", "value": "≤ 60", "unit": "%"}, {"measurement": "GBB displacement", "setting": "psBBOX [4]; listed as 4", "value": "~60", "unit": "%"}, {"measurement": "Kd", "setting": "[5]", "value": "12.3 ± 1", "unit": "µM"}, {"measurement": "IC50", "setting": "hBBOX", "value": "34 to 60", "unit": "µM"}, {"measurement": "inhibition of psBBOX* catalysed GBB turnover", "setting": "[2]; 1H NMR, 2.5 μM psBBOX*, 100 μM Fe(II), 200 μM GBB, 600 μM 2OG", "value": "unable to detect inhibition"}]}, {"compound": "[Mn+2]", "note": "[Mn(II)]", "values": [{"measurement": "Tm", "setting": "wt-psBBOX [3]", "value": "17.7±1.4"}, {"measurement": "Tm Shift", "setting": "wt-psBBOX [3]", "value": "1.3±0.2", "unit": "°C"}]}, {"compound": "[Na+]", "note": "[Na(I)]", "values": [{"measurement": "Tm", "setting": "wt-psBBOX [3]", "value": "20.5±0.4"}, {"measurement": "Tm Shift", "setting": "wt-psBBOX [3]", "value": "0.2±0.1", "unit": "°C"}]}, {"compound": "[Ni+2]", "note": "[Ni(II)]", "values": [{"measurement": "Tm", "setting": "wt-psBBOX [3]", "value": "12.3±0.2"}, {"measurement": "Tm Shift", "setting": "wt-psBBOX [3]", "value": "18.1±0.1", "unit": "°C"}]}, {"compound": "C[P+](C)(C)CCCC(=O)[O-]", "note": "[P-GBB]", "values": [{"measurement": "substrate for psBBOX", "setting": "psBBOX [6]", "value": "substrates"}]}, {"compound": "C[N+](C)(C)CCCCN(O)C(=O)/C=C/C(=O)O", "note": "[RL190B, (E)-4-(3-Carboxy-N-hydroxyacrylamido)-N,N,N-trimethylbutan-1-aminium]", "values": [{"measurement": "effect on the original psBBOX* 19F NMR signal", "setting": "psBBOX*-Zn(II)", "value": "attenuation"}, {"measurement": "effect on the original psBBOX* 19F NMR signal", "setting": "psBBOX*-Zn(II); listed as 8", "value": "significant broadening and almost complete attenuation"}, {"measurement": "displacement of GBB and 2OG from the psBBOX active site", "setting": "psBBOX [4]", "value": "displaces both GBB and 2OG"}, {"measurement": "displacement of GBB and 2OG from the psBBOX active site", "setting": "psBBOX [4]; listed as 8", "value": "displace both GBB and 2OG"}, {"measurement": "IC50", "setting": "[2]", "value": 15, "unit": "µM"}, {"measurement": "IC50", "setting": "wt-psBBOX [7]", "value": 5, "unit": "µM"}]}, {"compound": "[Zn+2]", "note": "[Zn(II)]", "values": [{"measurement": "Tm", "setting": "wt-psBBOX [3]", "value": "6.6±0.7"}, {"measurement": "Tm Shift", "setting": "wt-psBBOX [3]", "value": "12.8±1.3", "unit": "°C"}]}, {"compound": "O=C(N[C@@H](Cc1c[nH]c2ccccc12)C(=O)O)c1nc(Cl)c2ccccc2c1O", "note": "[compound 5]", "values": [{"measurement": "IC50", "setting": "BBOX", "value": 0.9, "unit": "µM"}]}]}
